# Laboratory results from patent publication US7192906B2, “Substituted pyrazole derivatives, production process thereof, and herbicide compositions containing the derivatives” (SDS Biotech K.K., priority 2001, dated 2007).
# Legend:
# Assay type in all cases: in vivo
# Digitaria adscendens [1] = test: Test Example 2 upland soil treatment; settings: Table 5, upland soil treatment, index 0-5
# In short: (§1)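 Score 0–5 read at day 21 (5 = ≥90% effect or phytotoxicity, 0 = <10%). Wettable powder diluted in water to 1 kg a.i./ha, applied uniformly to upland soil one day after sowing; seeds covered with ~1 cm soil.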
# Stellaria media [2] = test: Test Example 2 upland soil treatment; settings: Table 5, upland soil treatment, index 0-5
# In short: as §1
# Chenopodium album [3] = test: Test Example 2 upland soil treatment; settings: Table 5, upland soil treatment, index 0-5
# In short: as §1
# Setaria viridis [4] = test: Test Example 2 upland soil treatment; settings: Table 5, upland soil treatment, index 0-5
# In short: as §1
# soybean (Glycine max) [5] = test: Test Example 1 upland field foliage treatment, crop phytotoxicity; settings: Table 4, upland field foliage treatment, index 0-5
# In short: (§2)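 Seeds sown in upland soil in pots and covered with about 1 cm soil; on day 14 after sowing, diluted wettable powder applied uniformly to leaves at 1 kg active ingredient per hectare. Weed control or crop phytotoxicity scored visually 21 days after application on a 0–5 scale (5 = ≥90%, 0 = <10%).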
# [6] = tested on: wheat (Triticum aestivum); test: as above; settings: Table 4, upland field foliage treatment, index 0-5
# In short: as §2
# soybean (Glycine max) [7] = test: Test Example 2 upland soil treatment, crop phytotoxicity; settings: Table 5, upland soil treatment, index 0-5
# In short: as §1
# [8] = tested on: wheat (Triticum aestivum); test: as above; settings: Table 5, upland soil treatment, index 0-5
# In short: as §1
# Digitaria adscendens [9] = test: Test Example 1 upland field foliage treatment; settings: Table 4, upland field foliage treatment, index 0-5
# In short: as §2
# Stellaria media [10] = test: Test Example 1 upland field foliage treatment; settings: Table 4, upland field foliage treatment, index 0-5
# In short: as §2
# Chenopodium album [11] = test: Test Example 1 upland field foliage treatment; settings: Table 4, upland field foliage treatment, index 0-5
# In short: as §2
# Setaria viridis [12] = test: Test Example 1 upland field foliage treatment; settings: Table 4, upland field foliage treatment, index 0-5
# In short: as §2
# Rice (Oryza sativa) = test: Test Example 3 paddy field treatment, crop phytotoxicity; settings: Table 6, paddy field treatment, transplanted rice, active ingredient 1 kg per hectare, 21st day after dropping, index 0-5
# In short: (§3)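 Weed seeds sown in puddled paddy soil under 4 cm water, with two-leaf Koshihikari rice transplanted; 10 days later a wettable powder was applied to the water surface at 1 kg active ingredient/ha. Scored 21 days after application on a 0–5 scale (0 = <10%, 5 = ≥90% herbicidal effect or phytotoxicity).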
# Echinochloa crusgalli = test: Test Example 3 paddy field treatment; settings: Table 6, paddy field treatment, active ingredient 1 kg per hectare, 21st day after dropping, index 0-5
# In short: as §3
# Scirpus juncoides = test: Test Example 3 paddy field treatment; settings: Table 6, paddy field treatment, active ingredient 1 kg per hectare, 21st day after dropping, index 0-5
# In short: as §3
# Monochoria vaginalis = test: Test Example 3 paddy field treatment; settings: Table 6, paddy field treatment, active ingredient 1 kg per hectare, 21st day after dropping, index 0-5
# In short: as §3
# Ammannia multiflora = test: Test Example 3 paddy field treatment; settings: Table 6, paddy field treatment, active ingredient 1 kg per hectare, 21st day after dropping, index 0-5
# In short: as §3
Compound,Herbicidal activity DA: Digitaria adscendens (Digitaria adscendens [1]),Herbicidal activity SM: Stellaria media (Stellaria media [2]),Herbicidal activity CA: Chenopodium album (Chenopodium album [3]),Herbicidal activity SV: Setaria viridis (Setaria viridis [4]),Herbicidal activity (phytotoxicity) GM: Soybean (Glycine max) (soybean (Glycine max) [5]),Herbicidal activity (phytotoxicity) TA: Wheat (Triticum aestivum) [6],Herbicidal activity (phytotoxicity) GM: Soybean (Glycine max) (soybean (Glycine max) [7]),Herbicidal activity (phytotoxicity) TA: Wheat (Triticum aestivum) [8],Herbicidal activity DA: Digitaria adscendens (Digitaria adscendens [9]),Herbicidal activity SM: Stellaria media (Stellaria media [10]),Herbicidal activity CA: Chenopodium album (Chenopodium album [11]),Herbicidal activity SV: Setaria viridis (Setaria viridis [12]),Herbicidal activity (phytotoxicity) OS (Rice (Oryza sativa)),Herbicidal activity EC (Echinochloa crusgalli),Herbicidal activity SJ (Scirpus juncoides),Herbicidal activity MV (Monochoria vaginalis),Herbicidal activity AM (Ammannia multiflora)
CNC(=O)C(Cn1cc(C)c(-c2ccc(Cl)cc2F)n1)=NOC [Compound 81],"5 (herbicidal effect of not less than 90%, or phytotoxicity of 90% or more)","5 (herbicidal effect of not less than 90%, or phytotoxicity of 90% or more)","5 (herbicidal effect of not less than 90%, or phytotoxicity of 90% or more)","5 (herbicidal effect of not less than 90%, or phytotoxicity of 90% or more)","0 (herbicidal effect of not less than 0% and less than 10%, or phytotoxicity of 0% or more and less than 10%)","0 (herbicidal effect of not less than 0% and less than 10%, or phytotoxicity of 0% or more and less than 10%)","1 (herbicidal effect of not less than 10% and less than 30%, or phytotoxicity of 10% or more and less than 30%)","0 (herbicidal effect of not less than 0% and less than 10%, or phytotoxicity of 0% or more and less than 10%)","5 (herbicidal effect of not less than 90%, or phytotoxicity of 90% or more)","5 (herbicidal effect of not less than 90%, or phytotoxicity of 90% or more)","5 (herbicidal effect of not less than 90%, or phytotoxicity of 90% or more)","5 (herbicidal effect of not less than 90%, or phytotoxicity of 90% or more)","0 (herbicidal effect of not less than 0% and less than 10%, or phytotoxicity of 0% or more and less than 10%)","5 (herbicidal effect of not less than 90%, or phytotoxicity of 90% or more)","5 (herbicidal effect of not less than 90%, or phytotoxicity of 90% or more)","5 (herbicidal effect of not less than 90%, or phytotoxicity of 90% or more)","5 (herbicidal effect of not less than 90%, or phytotoxicity of 90% or more)"
CNC(=O)C(Cn1cc(C)c(-c2ccc(OC(F)(F)CF)cc2)n1)=NOC [Compound 67],"4 (herbicidal effect of not less than 70% and less than 90%, or phytotoxicity of 70% or more and less than 90%)","5 (herbicidal effect of not less than 90%, or phytotoxicity of 90% or more)","5 (herbicidal effect of not less than 90%, or phytotoxicity of 90% or more)","4 (herbicidal effect of not less than 70% and less than 90%, or phytotoxicity of 70% or more and less than 90%)","0 (herbicidal effect of not less than 0% and less than 10%, or phytotoxicity of 0% or more and less than 10%)","0 (herbicidal effect of not less than 0% and less than 10%, or phytotoxicity of 0% or more and less than 10%)","0 (herbicidal effect of not less than 0% and less than 10%, or phytotoxicity of 0% or more and less than 10%)","0 (herbicidal effect of not less than 0% and less than 10%, or phytotoxicity of 0% or more and less than 10%)","5 (herbicidal effect of not less than 90%, or phytotoxicity of 90% or more)","4 (herbicidal effect of not less than 70% and less than 90%, or phytotoxicity of 70% or more and less than 90%)","5 (herbicidal effect of not less than 90%, or phytotoxicity of 90% or more)","4 (herbicidal effect of not less than 70% and less than 90%, or phytotoxicity of 70% or more and less than 90%)","0 (herbicidal effect of not less than 0% and less than 10%, or phytotoxicity of 0% or more and less than 10%)","5 (herbicidal effect of not less than 90%, or phytotoxicity of 90% or more)","5 (herbicidal effect of not less than 90%, or phytotoxicity of 90% or more)","5 (herbicidal effect of not less than 90%, or phytotoxicity of 90% or more)","4 (herbicidal effect of not less than 70% and less than 90%, or phytotoxicity of 70% or more and less than 90%)"
CON=C(Cn1cc(C)c(-c2ccccc2)n1)C(=O)N1CCOCC1 [Compound 120],"4 (herbicidal effect of not less than 70% and less than 90%, or phytotoxicity of 70% or more and less than 90%)","4 (herbicidal effect of not less than 70% and less than 90%, or phytotoxicity of 70% or more and less than 90%)","4 (herbicidal effect of not less than 70% and less than 90%, or phytotoxicity of 70% or more and less than 90%)","3 (herbicidal effect of not less than 50% and less than 70%, or phytotoxicity of 50% or more and less than 70%)","0 (herbicidal effect of not less than 0% and less than 10%, or phytotoxicity of 0% or more and less than 10%)","0 (herbicidal effect of not less than 0% and less than 10%, or phytotoxicity of 0% or more and less than 10%)","0 (herbicidal effect of not less than 0% and less than 10%, or phytotoxicity of 0% or more and less than 10%)","0 (herbicidal effect of not less than 0% and less than 10%, or phytotoxicity of 0% or more and less than 10%)","4 (herbicidal effect of not less than 70% and less than 90%, or phytotoxicity of 70% or more and less than 90%)","4 (herbicidal effect of not less than 70% and less than 90%, or phytotoxicity of 70% or more and less than 90%)","5 (herbicidal effect of not less than 90%, or phytotoxicity of 90% or more)","4 (herbicidal effect of not less than 70% and less than 90%, or phytotoxicity of 70% or more and less than 90%)","0 (herbicidal effect of not less than 0% and less than 10%, or phytotoxicity of 0% or more and less than 10%)","3 (herbicidal effect of not less than 50% and less than 70%, or phytotoxicity of 50% or more and less than 70%)","3 (herbicidal effect of not less than 50% and less than 70%, or phytotoxicity of 50% or more and less than 70%)","4 (herbicidal effect of not less than 70% and less than 90%, or phytotoxicity of 70% or more and less than 90%)","4 (herbicidal effect of not less than 70% and less than 90%, or phytotoxicity of 70% or more and less than 90%)"
